Patent publication US11179383B2 (Gilead Sciences, Inc., priority 2018, dated 2021)

What follows are compounds tested against T1, α4β7 integrin (Homo sapiens, UniProt P13612+P26010) (assay: α4β7 Integrin Cell Capture Assay). Conditions: capture of α4β7 integrin expressing RPMI8866 cells on recombinant MadCAM-1 extracellular domain-coated plate; DMEM+0.5% FBS+0.5 mM MnCl2; read-out: EC50 α4β7.
T1 construct: monitoring the capture of α4β7 integrin expressing cells on a recombinant MadCAM-1 extracellular domain-coated plate; endogenous in cells; host or cells: RPMI8866 cells
T1 sequence (P13612 34-1032): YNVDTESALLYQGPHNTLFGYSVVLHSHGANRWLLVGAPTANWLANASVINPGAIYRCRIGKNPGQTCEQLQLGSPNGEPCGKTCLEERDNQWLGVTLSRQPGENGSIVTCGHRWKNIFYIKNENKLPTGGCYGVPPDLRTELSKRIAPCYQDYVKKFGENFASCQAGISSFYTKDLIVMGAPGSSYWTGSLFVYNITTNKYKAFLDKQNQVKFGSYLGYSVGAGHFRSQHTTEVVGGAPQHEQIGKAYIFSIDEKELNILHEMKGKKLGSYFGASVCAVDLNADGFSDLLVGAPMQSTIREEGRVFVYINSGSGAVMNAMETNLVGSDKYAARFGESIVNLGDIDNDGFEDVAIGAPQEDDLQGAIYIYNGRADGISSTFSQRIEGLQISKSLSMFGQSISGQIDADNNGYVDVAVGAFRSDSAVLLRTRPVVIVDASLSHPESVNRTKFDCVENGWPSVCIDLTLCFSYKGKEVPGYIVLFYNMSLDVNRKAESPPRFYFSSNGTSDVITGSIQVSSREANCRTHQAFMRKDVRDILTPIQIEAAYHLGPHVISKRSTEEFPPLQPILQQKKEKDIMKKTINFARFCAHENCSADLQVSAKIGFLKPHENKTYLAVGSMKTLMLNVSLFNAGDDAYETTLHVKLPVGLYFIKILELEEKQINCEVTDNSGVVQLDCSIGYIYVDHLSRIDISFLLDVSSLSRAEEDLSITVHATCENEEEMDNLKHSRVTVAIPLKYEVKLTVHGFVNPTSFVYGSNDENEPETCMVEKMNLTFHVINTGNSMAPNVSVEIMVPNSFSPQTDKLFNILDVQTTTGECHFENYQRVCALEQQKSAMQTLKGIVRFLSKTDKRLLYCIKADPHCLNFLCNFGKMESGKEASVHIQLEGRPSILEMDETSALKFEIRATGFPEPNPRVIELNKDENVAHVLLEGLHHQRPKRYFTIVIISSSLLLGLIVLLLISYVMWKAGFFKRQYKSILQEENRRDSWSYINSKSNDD
T1 sequence (P26010 20-798): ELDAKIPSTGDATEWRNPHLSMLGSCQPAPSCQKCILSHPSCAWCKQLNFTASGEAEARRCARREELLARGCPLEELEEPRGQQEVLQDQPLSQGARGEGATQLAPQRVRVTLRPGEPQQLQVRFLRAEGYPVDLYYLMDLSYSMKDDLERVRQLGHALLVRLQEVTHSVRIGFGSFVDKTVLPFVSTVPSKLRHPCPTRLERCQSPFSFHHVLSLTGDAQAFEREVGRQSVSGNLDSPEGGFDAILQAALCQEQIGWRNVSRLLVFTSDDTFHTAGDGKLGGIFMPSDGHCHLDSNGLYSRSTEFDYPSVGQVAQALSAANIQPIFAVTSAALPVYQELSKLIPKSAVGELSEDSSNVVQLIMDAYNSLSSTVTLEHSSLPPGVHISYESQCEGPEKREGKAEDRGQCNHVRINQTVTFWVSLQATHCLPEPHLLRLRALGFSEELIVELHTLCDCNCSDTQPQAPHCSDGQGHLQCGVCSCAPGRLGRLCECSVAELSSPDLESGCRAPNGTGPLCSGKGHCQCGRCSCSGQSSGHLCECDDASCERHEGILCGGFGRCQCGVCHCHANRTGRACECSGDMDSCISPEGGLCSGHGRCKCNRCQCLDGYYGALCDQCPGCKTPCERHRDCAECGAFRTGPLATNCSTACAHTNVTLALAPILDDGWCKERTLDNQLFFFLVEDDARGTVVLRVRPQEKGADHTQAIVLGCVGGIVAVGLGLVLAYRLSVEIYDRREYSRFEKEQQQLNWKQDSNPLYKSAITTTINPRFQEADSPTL
Assay type: cell-based
Method in brief: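 RPMI8866 cells in DMEM + 0.5% FBS + 0.5 mM MnCl2 preincubated with compound 1 h at 37 °C, then allowed to bind 30 min at 37 °C to plates coated with MAdCAM-1 extracellular domain (1.0 μg/mL). Cells fixed with glutaraldehyde, Hoechst-stained, imaged and bound cells counted; EC50 from cell count versus concentration.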

Going from `Cc1c(-c2ccc(C[C@H](NC(=O)c3c(F)cc(N4CCOC[C@@H]4C(F)(F)F)cc3F)C(=O)O)c3ccccc23)c(=O)n(C)c(=O)n1C` [Example 138, (S)-2-(2,6-difluoro-4-((R)-3-(trifluoromethyl)morpholino)benzamido)-3-(4-(1,3,6-trimethyl-2,4-dioxo-1,2,3,4-tetrahydropyrimidin-5-yl)naphthalen-1-yl)propanoic acid] to `Cc1cnc(-c2ccc(C[C@H](NC(=O)c3c(F)cc(N4CCOC[C@@H]4C(F)(F)F)cc3F)C(=O)O)c3ccccc23)nc1C` [Example 141, (S)-2-(2,6-difluoro-4-((R)-3-(trifluoromethyl)morpholino)benzamido)-3-(4-(4,5-dimethylpyrimidin-2-yl)naphthalen-1-yl)propanoic acid], the EC50 rises from 0.3 nM to 3.6 nM (12-fold). The first is the more potent here.

`CC[C@@H](Nc1cc(F)c(C(=O)N[C@@H](Cc2ccc(-c3c(C)n(C)c(=O)n(C)c3=O)c3ccccc23)C(=O)O)c(F)c1)C(F)(F)F` [Example 139, (S)-2-(2,6-difluoro-4-(((R)-1,1,1-trifluorobutan-2-yl)amino)benzamido)-3-(4-(1,3,6-trimethyl-2,4-dioxo-1,2,3,4-tetrahydropyrimidin-5-yl)naphthalen-1-yl)propanoic acid] and `CC[C@@H](Nc1cc(F)c(C(=O)N[C@@H](Cc2ccc(-c3cc4cnccc4n(C)c3=O)c3ccccc23)C(=O)O)c(F)c1)C(F)(F)F` [Example 142] are within 1.5-fold of each other in EC50: 0.4 nM for the first, 0.5 nM for the second.

First: Cn1c(=O)c(-c2ccc(C[C@H](NC(=O)c3c(F)cc(N4CCOC[C@@H]4C(F)(F)F)cc3F)C(=O)O)c3ccccc23)cc2cnccc21 [Example 140, (S)-2-(2,6-difluoro-4-((R)-3-(trifluoromethyl)morpholino)benzamido)-3-(4-(1-methyl-2-oxo-1,2-dihydro-1,6-naphthyridin-3-yl)naphthalen-1-yl)propanoic acid]
Second: O=C(N[C@@H](Cc1ccc(-c2c(Cl)cc(F)cc2Cl)c2nsnc12)C(=O)O)c1c(F)cccc1F [Example 150, (S)-3-(7-(2,6-dichloro-4-fluorophenyl)benzo[c][1,2,5]thiadiazol-4-yl)-2-(2,6-difluorobenzamido)propanoic acid]
The EC50 of the first is 1800-fold lower: 0.1 nM for the first, 181 nM for the second.

Going from `CCOCc1cc(OC)c(-c2ccc(CC(NC(=O)c3c(F)cc(NS(=O)(=O)c4ccc(-c5ccnc(F)c5)cc4)cc3F)C(=O)O)c3c2cnn3C)c(OC)c1` (stereo not shown) [Example 143, 2-(2,6-difluoro-4-((4-(2-fluoropyridin-4-yl)phenyl)sulfonamido)benzamido)-3-(4-(4-(ethoxymethyl)-2,6-dimethoxyphenyl)-1-methyl-1H-indazol-7-yl)propanoic acid] to `CCOCc1cc(OC)c(-c2ccc(C[C@H](NC(=O)c3c(F)cc(NS(=O)(=O)c4ccc(-c5ccnc(F)c5)cc4)cc3F)C(=O)O)c3c2cnn3C)c(OC)c1` [Example 144], the EC50 falls from 30.2 nM to 4.9 nM (6.2-fold). The second is the more potent here.

Going from `CCOCc1cc(OC)c(-c2ccc(CC(NC(=O)c3c(F)cc(NS(=O)(=O)c4ccc(-c5ccnc(F)c5)cc4)cc3F)C(=O)O)c3cnn(C)c23)c(OC)c1` (stereo not shown) [Example 146, 2-(2,6-difluoro-4-((4-(2-fluoropyridin-4-yl)phenyl)sulfonamido)benzamido)-3-(7-(4-(ethoxymethyl)-2,6-dimethoxyphenyl)-1-methyl-1H-indazol-4-yl)propanoic acid] to `CCOCc1cc(OC)c(-c2ccc(C[C@H](NC(=O)c3c(F)cc(NS(=O)(=O)c4ccc(-c5ccnc(F)c5)cc4)cc3F)C(=O)O)c3nsnc23)c(OC)c1` [Example 149, (S)-2-(2,6-difluoro-4-((4-(2-fluoropyridin-4-yl)phenyl)sulfonamido)benzamido)-3-(7-(4-(ethoxymethyl)-2,6-dimethoxyphenyl)benzo[c]-[1,2,5]thiadiazol-4-yl)propanoic acid], the EC50 falls from 0.6 nM to 0.3 nM (2-fold).
